# Assays:
# CDK2/CycE = molecular target: T1, CDK2/CycE (Homo sapiens, UniProt P24941); experiment: CDK2/CycE kinase assay (TR-FRET); type: biochemical; conditions: avg, read-out: CDK2 avg (IC50 [mol/l])
# T1 construct: GST; purchased ProQinase GmbH (Freiburg, Germany); host or cells: insect cells (Sf9)
# Excerpt: CDK2/CycE -inhibitory activity of compounds of the present invention was quantified employing the CDK2/CycE TR-FRET assay as described in the following paragraphs.
# Recombinant fusion proteins of GST and human CDK2 and of GST and human CycE, expressed in insect cells (Sf9) and purified by Glutathion-Sepharose affinity chromatography, were purchased from ProQinase GmbH (Freiburg, Germany). As substrate for the kinase reaction biotinylated peptide biotin-Ttds-YISPLKSPYKISEG (C-terminus in amid form) was used which can be purchased e.g. form the company JERINI peptide technologies (Berlin, Germany).
# For the assay 50 nl of a 100fold concentrated solution of the test compound in DMSO was pipetted into a black low volume 384we11 microtiter plate (Greiner Bio-One, Frickenhausen, Germany), 2 μl of a solution of CDK2/CycE in aqueous assay buffer [50 mM Tris/HCl pH 8.0, 10 mM MgCl2, 1.0 mM dithiothreitol, 0.1 mM sodium ortho-vanadate, 0.01% (v/v) Nonidet-P40 (Sigma)] were added and the mixture was incubated for 15 min at 22° C. to allow pre-binding of the test compounds to the enzyme before the start of the kinase reaction. Then the kinase reaction was started by the addition of 3 μl of a solution of adenosine-tri-phosphate (ATP, 16.7 μM=>final conc. in the 5 μl assay volume is 10 μM) and substrate (1.25 μM=>final conc. in the 5 μl assay volume is 0.75 μM) in assay buffer and the resulting mixture was incubated for a reaction time of 25 min at 22° C. The concentration of CDK2/CycE was adjusted depending of the activity of the enzyme lot and was chosen appropriate to have the assay in the linear range, typical concentrations were in the range of 130 ng/ml. The reaction was stopped by the addition of 5 μl of a solution of TR-FRET detection reagents (0.2 μM streptavidine-XL665 [Cisbio Bioassays, Codolet, France] and 1 nM anti-RB(pSer807/pSer811)-antibody from BD Pharmingen [#558389] and 1.2 nM LANCE EU-W1024 labeled anti-mouse IgG antibody [Perkin-Elmer, product no. AD0077, as an alternative a Terbium-cryptate-labeled anti-mouse IgG antibody from Cisbio Bioassays can be used]) in an aqueous EDTA-solution (100 mM EDTA, 0.2% (w/v) bovine serum albumin in 100 mM HEPES/NaOH pH 7.0).
# The resulting mixture was incubated 1 h at 22° C. to allow the formation of complex between the phosphorylated biotinylated peptide and the detection reagents. Subsequently the amount of phosphorylated substrate was evaluated by measurement of the resonance energy transfer from the Eu-chelate to the streptavidine-XL. Therefore, the fluorescence emissions at 620 nm and 665 nm after excitation at 350 nm was measured in a TR-FRET reader, e.g. a Rubystar (BMG Labtechnologies, Offenburg, Germany) or a Viewlux (Perkin-Elmer). The ratio of the emissions at 665 nm and at […] was taken as the measure for the amount of phosphorylated substrate. The data were normalised (enzyme reaction without inhibitor=0% inhibition, all other assay components but no enzyme=100% inhibition).
# [1] = tested on: human cervical tumor cell line HeLa (ATCC CCL-2); experiment: SAC-Formation - Nocodazole-Induced Assay; type: cell-based; conditions: 24 h, HeLa cells, nocodazole 0.1 μg/ml together with test compound, decrease of mitotic cells (phospho-histone H3 Ser10)
# Summary of the method: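 HeLa cells, plated overnight, were treated 24 h at 37 °C with nocodazole (0.1 μg/ml final) plus test compound (0.005–20 μM, 0.5% DMSO) added at the same time. After fixation, anti-phospho-histone H3 Ser10 and Hoechst staining gave the mitotic cell fraction by imaging. Values came from four-parameter Hill fits.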
Structure (SMILES),IC50 (CDK2/CycE) [nM],"IC50 ([1]; Homo sapiens, HeLa) [nM]",IC50 [1] [nM]
"COC(=O)CNC(=O)c1cccc(NC(=O)c2c(C)nsc2Nc2cnc3ccccc3n2)c1 [Example 100, Methyl N-[3-({[3-methyl-5-(quinoxalin-2-ylamino)-1,2-thiazol-4-yl]carbonyl}amino)-benzoyl]glycinate]",≥ 20000,1500,–
"Cc1nsc(Nc2cnc3ccccc3n2)c1C(=O)Nc1cccc(C(=O)N2CCNCC2)c1 [Example 101, 3-Methyl-N-[3-(piperazin-1-ylcarbonyl)phenyl]-5-(quinoxalin-2-ylamino)-1,2-thiazole-4-carboxamide]",≥ 20000,1800,–
"Cc1nsc(Nc2cnc3ccccc3n2)c1C(=O)Nc1cccc(C(=O)N2CCN(C)CC2)c1 [Example 102, 3-Methyl-N-{3-[(4-methylpiperazin-1-yl)carbonyl]phenyl}-5-(quinoxalin-2-ylamino)-1,2-thiazole-4-carboxamide]",≥ 20000,4900,–
"Cc1nsc(Nc2cnc3ccccc3n2)c1C(=O)Nc1cccc(C(=O)N[C@@H](CCC(N)=O)C(=O)O)c1 [Example 103, N^2-[3-({[3-Methyl-5-(quinoxalin-2-ylamino)-1,2-thiazol-4-yl]carbonyl}amino)-benzoyl]glutamine]",≥ 20000,13000,–
"Cc1nsc(Nc2cnc3ccccc3n2)c1C(=O)Nc1cccc(C(=O)N[C@H](C(=O)O)[C@@H](C)OC(C)(C)C)c1 [Example 104, O-tert-Butyl-N-[3-({[3-methyl-5-(quinoxalin-2-ylamino)-1,2-thiazol-4-yl]-carbonyl}amino)benzoyl]threonine]",≥ 20000,1800,–
"Cc1nsc(Nc2cnc3ccccc3n2)c1C(=O)Nc1cccc(C(=O)N[C@H](C(=O)O)[C@@H](C)O)c1 [Example 105, N-[3-({[3-methyl-5-(quinoxalin-2-ylamino)-1,2-thiazol-4-yl]carbonyl}amino)-benzoyl]threonine]",≥ 20000,20000,–
"Cc1noc(-c2cccc(NC(=O)c3c(C)nsc3Nc3cnc4ccccc4n3)c2)n1 [Example 106, 3-Methyl-N-[3-(3-methyl-1,2,4-oxadiazol-5-yl)phenyl]-5-(quinoxalin-2-ylamino)-1,2-thiazole-4-carboxamide]",≥ 20000,140,–
"Cc1nsc(Nc2cnc3ccccc3n2)c1C(=O)Nc1cccc(-c2nnc(C(C)(C)C)o2)c1 [Example 107, N-[3-(5-tert-Butyl-1,3,4-oxadiazol-2-yl)phenyl]-3-methyl-5-(quinoxalin-2-ylamino)-1,2-thiazole-4-carboxamide]",≥ 20000,11,–
"Cc1nsc(Nc2cnc3ccccc3n2)c1C(=O)Nc1cccc(-c2nc(C(C)(C)C)no2)c1 [Example 108, N-[3-(3-tert-Butyl-1,2,4-oxadiazol-5-yl)phenyl]-3-methyl-5-(quinoxalin-2-ylamino)-1,2-thiazole-4-carboxamide]",≥ 20000,19,–
"Cc1nsc(Nc2cnc(C(F)(F)F)cn2)c1C(=O)Nc1ccc(OCC2CCN(C(=O)OC(C)(C)C)C2)nc1 (centres unmarked) [Example 109, tert-Butyl 3-{[(5-{[(3-methyl-5-{[5-(trifluoromethyl)pyrazin-2-yl]amino}-1,2-thiazol-4-yl)carbonyl]amino}pyridin-2-yl)oxy]methyl}pyrrolidine-1-carboxylate]",≥ 20000,7,–

# The next lines start with the values.
IC50 (CDK2/CycE) [nM],"IC50 ([1]; Homo sapiens, HeLa) [nM]",IC50 [1] [nM],Structure (SMILES)
> 20000,27,–,"Cc1nsc(Nc2cnc(C(F)(F)F)cn2)c1C(=O)Nc1ccc(OC[C@H]2CCN(CC(F)(F)F)C2)nc1 (racemic) [Example 133, 3-Methyl-N-(6-{[(SR)-1-(2,2,2-trifluoroethyl)pyrrolidin-3-yl]methoxy}pyridin-3-yl)-5-{[5-(trifluoromethyl)pyrazin-2-yl]amino}-1,2-thiazole-4-carboxamide]"
≥ 20000,14000,–,"Cc1nsc(Nc2cnc(C(F)(F)F)cn2)c1C(=O)Nc1ccc(OC2CCNCC2)nc1 [Example 6, 3-Methyl-N-[6-(piperidin-4-yloxy)pyridin-3-yl]-5-{[5-(trifluoromethyl)pyrazin-2-yl]amino}-1,2-thiazole-4-carboxamide]"
≥ 20000,600,–,"Cc1nsc(Nc2cnc(C(F)(F)F)cn2)c1C(=O)Nc1ccc(OC2CCN(CCF)CC2)nc1 [Example 7, N-(6-{[1-(2-Fluoroethyl)piperidin-4-yl]oxy}pyridin-3-yl)-3-methyl-5-{[5-(trifluoromethyl)pyrazin-2-yl]amino}-1,2-thiazole-4-carboxamide]"
≥ 20000,1500,–,"Cc1nsc(Nc2cnc(C(F)(F)F)cn2)c1C(=O)Nc1ccc(OC2CCN(CC(F)F)CC2)nc1 [Example 8, N-(6-{[1-(2,2-Difluoroethyl)piperidin-4-yl]oxy}pyridin-3-yl)-3-methyl-5-{[5-(trifluoromethyl)pyrazin-2-yl]amino}-1,2-thiazole-4-carboxamide]"
≥ 20000,220,–,"Cc1nsc(Nc2cnc(C(F)(F)F)cn2)c1C(=O)Nc1ccc(OC2CCN(CC(F)(F)F)CC2)nc1 [Example 9, -Methyl-N-(6-{[1-(2,2,2-trifluoroethyl)piperidin-4-yl]oxy}pyridin-3-yl)-5-{[5-(trifluoromethyl)pyrazin-2-yl]amino}-1,2-thiazole-4-carboxamide]"
≥ 20000,–,260,"Cc1nsc(Nc2cnc(C(F)(F)F)cn2)c1C(=O)Nc1ccc(OC2CCN(CCC(F)(F)F)CC2)nc1 [Example 10, 3-Methyl-5-{[5-(trifluoromethyl)pyrazin-2-yl]amino}-N-(6-{[1-(3,3,3-trifluoropropyl)-piperidin-4-yl]oxy}pyridin-3-yl)-1,2-thiazole-4-carboxamide]"
≥ 20000,1000,–,"CC(=O)N1CCC(Oc2ccc(NC(=O)c3c(C)nsc3Nc3cnc(C(F)(F)F)cn3)cn2)CC1 [Example 11, N-{6-[(1-Acetylpiperidin-4-yl)oxy]pyridin-3-yl}-3-methyl-5-{[5-(trifluoromethyl)-pyrazin-2-yl]amino}-1,2-thiazole-4-carboxamide]"
≥ 20000,220,–,"Cc1nsc(Nc2cncc(C(F)(F)F)n2)c1C(=O)Nc1ccc(OC2CCN(C(=O)OC(C)(C)C)CC2)nc1 [Example 12, tert-Butyl 4-[(5-{[(3-methyl-5-{[6-(trifluoromethyl)pyrazin-2-yl]amino}-1,2-thiazol-4-yl)carbonyl]amino}pyridin-2-yl)oxy]piperidine-1-carboxylate]"
≥ 20000,1.8,–,"Cc1nsc(Nc2cnc(C(F)(F)F)cn2)c1C(=O)Nc1ccc(C(=O)OC(C)(C)C)cc1 [Example 96, tert-Butyl 4-{[(3-methyl-5-{[5-(trifluoromethyl)pyrazin-2-yl]amino}-1,2-thiazol-4-yl)carbonyl]amino}benzoate]"
≥ 20000,24,–,"Cc1nsc(Nc2cnc(C(F)(F)F)cn2)c1C(=O)Nc1ccc(C(=O)O)cc1 [Example 97, 4-{[(3-Methyl-5-{[5-(trifluoromethyl)pyrazin-2-yl]amino}-1,2-thiazol-4-yl)carbony]-amino}benzoic acid]"
≥ 20000,3.8,–,"Cc1nsc(Nc2ccc(C#N)cn2)c1C(=O)Nc1ccc(C(=O)OC(C)(C)C)cc1 [Example 98, tert-Butyl 4-[({5-[(5-cyanopyridin-2-yl)amino]-3-methyl-1,2-thiazol-4-yl}carbonyl)-amino]benzoate]"
≥ 20000,1100,–,"Cc1nsc(Nc2cnc3ccccc3n2)c1C(=O)Nc1cccc(C(=O)NCC(=O)O)c1 [Example 99, N-[3-({[3-Methyl-5-(quinoxalin-2-ylamino)-1,2-thiazol-4-yl]carbonyl}amino)benzoy]-glycine]"
